Columns and labels:
[1] = test system: Vasoactive Intestinal Peptide, Non-selective; assay: Table 12 panel: VIP; format: binding; settings: 1.0E−6, average N=2
Source text: (§1) The percentage inhibition (average; N=2) for these receptors is shown below in Table 12.
(§2) Values in Table 12 are expressed as percentage inhibition of specific binding, and these values represent the average of replicate tubes at each of the concentrations tested.

[2] = test system: T1, Adrenergic, Alpha 2, Non-selective; assay: Table 12 panel: Adrenergic, Alpha 2; format: binding; settings: Adrenergic, Alpha 2; 1.0E−6; average N=2
T1 construct: other: Adrenergic, Alpha 2; 1.0E−6; average N=2

Endothelin, ET-B (h) = Endothelin, ET-B (h) (Homo sapiens, UniProt P24530); assay: Table 12 panel: Endothelin, ET-B; settings: 1.0E−6, average N=2, read-out: percentage inhibition of specific binding
Source text: as §1, §2

[3] = test system: Muscarinic, Non-selective, Peripheral; assay: Table 12 panel: Muscarinic, Peripheral; format: binding; settings: 1.0E−6, average N=2
Source text: as §1, §2

Galanin, Non-Selective = assay: Table 12 panel: Galanin; format: binding; settings: 1.0E−6, average N=2
Source text: as §1, §2

Opioid, Non-selective = assay: Table 12 panel: Opioid; format: binding; settings: 1.0E−6, average N=2
Source text: as §1, §2

[4] = molecular target: Neurokinin, NK2 (NKA) (hr) (Homo sapiens, UniProt P21452); assay: Table 12 panel: NK2; settings: 1.0E−6, average N=2, read-out: percentage inhibition of specific binding
Source text: as §1, §2

[5] = test system: Glutamate, NMDA Agonist Site; assay: Table 12 panel: Glutamate, NMDA Agonist; format: binding; settings: 1.0E−6, average N=2
Source text: as §1, §2

Dopamine, Non-selective = assay: Table 12 panel: Dopamine, Non-selective; format: binding; settings: 1.0E−6, average N=2
Source text: as §1, §2

[6] = Plasma pharmacokinetics in cynomolgus monkeys; format: in vivo; settings: cynomolgus monkey, 3 mg/kg
Source text: The following pharmacokinetic parameters are computed from the individual plasma concentrations of the modified antihistamine compound using a noncompartmental approach and appropriate validated pharmacokinetic software (e.g., WinNonlin Professional). Concentration values reported as BLQ are set to zero. If concentration data are available, interim calculations are done (non-QC.d data) between periods if possible.
Dose proportionality following study medication is explored by analyzing natural log-transformed pharmacokinetic variables AUC(0-t), AUC(0-inf), and Cmax with a linear model including the natural log-transformed dose as covariates. […] The following parameters were estimated: • Cmax Maximum plasma concentration. • Tmax Time to maximum concentration. • Cmax and Tmax were reported directly from the concentration-time data. • AUC0-T Area under the plasma concentration-time curve from time […] to the last time point with measurable concentrations, estimated bylinear trapezoidal rule. • AUC0-00 Area under the plasma concentration-time curve extrapolated to infinity, calculated using the formula: AUC0-00=AUC0-1+C0/λ0 • Where Ct is the last measurable concentration in plasma and λz is the terminal phase elimination rate constant estimated using log-linear regression during the terminal elimination phase. […]

[7] = 14-day dog study with recovery phase; format: in vivo; settings: Beagle, dog, in vivo
Experimental: (§3) The toxicity and the toxicokinetics of HY2901 when administered daily via oral gavage (Phase 1) or capsules (Phase 2) to dogs for at least 14 days was determined. The reversibility, persistence, or delayed occurrence of observable effects following a 7-day (Phase 1) or 14-day (Phase 2) recovery period was also assessed. Doses of 3, 10, 30, and 70 mg/kg/day were studied.

Beagles = assay: 14-day dog study with recovery phase; format: in vivo
Experimental: as §3

Sequence of Neurokinin, NK2 (NKA) (hr) (P21452 whole entry): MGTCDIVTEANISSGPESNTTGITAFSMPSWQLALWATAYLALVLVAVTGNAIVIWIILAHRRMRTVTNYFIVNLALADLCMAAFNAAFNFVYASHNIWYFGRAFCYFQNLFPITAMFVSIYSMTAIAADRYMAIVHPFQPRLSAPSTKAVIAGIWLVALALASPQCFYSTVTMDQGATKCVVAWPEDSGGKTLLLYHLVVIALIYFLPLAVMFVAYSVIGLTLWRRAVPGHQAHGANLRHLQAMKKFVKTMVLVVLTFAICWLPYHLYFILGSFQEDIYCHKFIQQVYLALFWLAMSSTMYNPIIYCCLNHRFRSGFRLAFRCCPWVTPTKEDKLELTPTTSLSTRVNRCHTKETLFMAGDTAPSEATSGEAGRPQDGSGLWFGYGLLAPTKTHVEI
Sequence of Endothelin, ET-B (h) (P24530 27-442): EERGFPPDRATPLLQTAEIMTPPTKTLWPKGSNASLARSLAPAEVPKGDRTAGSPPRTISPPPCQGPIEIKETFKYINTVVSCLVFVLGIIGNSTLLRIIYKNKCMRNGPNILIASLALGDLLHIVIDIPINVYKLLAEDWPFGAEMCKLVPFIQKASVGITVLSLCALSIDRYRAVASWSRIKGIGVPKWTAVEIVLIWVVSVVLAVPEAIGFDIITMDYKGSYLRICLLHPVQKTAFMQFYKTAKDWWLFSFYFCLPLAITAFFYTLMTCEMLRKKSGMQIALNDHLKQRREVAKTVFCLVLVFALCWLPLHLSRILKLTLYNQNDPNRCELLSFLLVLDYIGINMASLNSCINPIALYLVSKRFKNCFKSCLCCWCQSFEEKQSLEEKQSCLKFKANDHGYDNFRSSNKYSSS

Structure (SMILES) | percentage inhibition of specific binding [1] [%] | percentage inhibition of specific binding [2] [%] | inhibition at 1 µM (Endothelin, ET-B (h)) [%] | percentage inhibition of specific binding [3] [%] | percentage inhibition of specific binding (Galanin, Non-Selective) [%] | percentage inhibition of specific binding (Opioid, Non-selective) [%] | inhibition at 1 µM [4] [%] | percentage inhibition of specific binding [5] [%] | percentage inhibition of specific binding (Dopamine, Non-selective) [%] | half-life [6] [h] | Tmax ([6]; after oral administration) [h] | NOAEL at 14 days [7] [mg/kg/day] | clinical observations (Beagles; 3 mg/kg/day Phase 1 dogs) | respiration rates, rectal body temperatures, body weights, food consumption, electrocardiograms, ophthalmic examinations (Beagles; Phase 1 and 2) | clinical observations (Beagles; Phase 2 (capsules)) | clinical laboratory data (Beagles; dog, in vivo) | survival (Beagles; dog, in vivo)
CC(CC(=O)O)N1CCC(=C2c3ccc(F)cc3COc3ccccc32)CC1 (centres unmarked) [Compound 37] | 2.51 | −3.79 | -6.51 | 5.37 | −5.07 | −9.30 | -4.17 | −5.56 | 21.10 |  |  |  |  |  |  |  | 
CC(C)(CN1CCC(=C2c3ccc(F)cc3COc3ccccc32)CC1)C(=O)O [Compound 49a] |  |  |  |  |  |  |  |  |  | 4.4 | 1.5 | 70 | no treatment-related clinical observations | no changes | treatment-related head tremors, ataxia, hypoactivity, and excessive salivation | no evidence in the clinical laboratory data of an effect | survived until scheduled sacrifice
